From patent publication US12312332B2 (Merck Sharp & Dohme LLC., priority 2019, dated 2025)

Biological target: T1, human OX2R (Homo sapiens, UniProt O43614)
T1 construct: expressed in transfected cells; host or cells: Chinese hamster ovary (CHO) cells, kept under G418 selection
T1 sequence (O43614 1-444): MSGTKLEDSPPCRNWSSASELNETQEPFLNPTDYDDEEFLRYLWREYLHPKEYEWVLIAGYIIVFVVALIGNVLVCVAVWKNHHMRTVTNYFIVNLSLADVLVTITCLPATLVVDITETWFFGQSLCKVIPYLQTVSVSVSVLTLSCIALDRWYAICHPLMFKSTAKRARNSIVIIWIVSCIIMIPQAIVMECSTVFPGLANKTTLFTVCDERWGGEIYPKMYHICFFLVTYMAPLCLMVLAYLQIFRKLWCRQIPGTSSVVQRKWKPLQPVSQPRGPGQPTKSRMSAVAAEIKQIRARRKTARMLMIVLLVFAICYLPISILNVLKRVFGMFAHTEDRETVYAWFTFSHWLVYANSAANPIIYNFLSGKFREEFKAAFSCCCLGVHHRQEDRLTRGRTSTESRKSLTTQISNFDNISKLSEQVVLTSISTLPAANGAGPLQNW
Experiment: IPOne (IP-One) orexin receptor agonist assay in CHO cells expressing human OX2R
Type: cell-based
Details: for EC50: CHO cells expressing human OX2R, IP-One detection, 2 hours incubation, four parameter logistic fit, read-out: OX2R Potency, EC50; for % max agonist effect (Emax): human OX2R, percentage of sample raw value/mean max effect (reference compound at 1 uM with 100% activity)

SMILES | EC50 | % max agonist effect (Emax)
Cc1cnc(N2CC[C@H](NS(C)(=O)=O)[C@@H]2CO[C@H]2CC[C@@H](c3ccccc3)CC2)cn1 [Example 65, N-((2R,3S)-1-(5-methylpyrazin-2-yl)-2-((((CIS)-4-phenylcyclohexyl)oxy)methyl)pyrrolidin-3-yl)methanesulfonamide] | 123 nM | 100.9%
CS(=O)(=O)N[C@H]1CCN(c2cnc(C3CC3)cn2)[C@H]1CO[C@H]1CC[C@@H](c2ccccc2)CC1 [Example 66, N-((2R,3S)-1-(5-cyclopropylpyrazin-2-yl)-2-((((CIS)-4-phenylcyclohexyl)oxy)methyl)pyrrolidin-3-yl)methanesulfonamide] | 178 nM | 99.2%
Cc1ccnc(N2CC[C@H](NS(C)(=O)=O)[C@@H]2CO[C@H]2CC[C@@H](c3ccccc3)CC2)n1 [Example 67, N-((2R,3S)-1-(4-methylpyrimidin-2-yl)-2-((((CIS)-4-phenylcyclohexyl)oxy)methyl)pyrrolidin-3-yl)methanesulfonamide] | 2180 nM | 92.6%
CS(=O)(=O)N[C@H]1CCN(c2ccc(O)cn2)[C@H]1CO[C@H]1CC[C@@H](c2ccccc2)CC1 [Example 68, N-((2R,3S)-1-(5-hydroxypyridin-2-yl)-2-((((CIS)-4-phenylcyclohexyl)oxy)methyl)pyrrolidin-3-yl)methanesulfonamide] | 173 nM | 99.1%
CS(=O)(=O)N[C@H]1CCN(c2csc(C3CC3)n2)[C@H]1CO[C@H]1CC[C@@H](c2ccccc2)CC1 [Example 69, N-((2R,3S)-1-(2-cyclopropylthiazol-4-yl)-2-((((CIS)-4-phenylcyclohexyl)oxy)methyl)pyrrolidin-3-yl)methanesulfonamide] | 271 nM | 99.4%
CS(=O)(=O)N[C@H]1CCN(c2ccncc2C(F)(F)F)[C@H]1CO[C@H]1CC[C@@H](c2ccccc2)CC1 [Example 70, N-((2R,3S)-2-((((CIS)-4-phenylcyclohexyl)oxy)methyl)-1-(3-(trifluoromethyl)pyridin-4-yl)pyrrolidin-3-yl)methanesulfonamide] | 1670 nM | 96.0%
CS(=O)(=O)N[C@H]1CCN(c2ccc(CO)nc2)[C@H]1CO[C@H]1CC[C@@H](c2ccccc2)CC1 [Example 71, N-((2R,3S)-1-(6-(hydroxymethyl)pyridin-3-yl)-2-((((CIS)-4-phenylcyclohexyl)oxy)methyl)pyrrolidin-3-yl)methanesulfonamide] | 23.8 nM | 101.1%
CS(=O)(=O)N[C@H]1CCN(c2nccc(O)c2F)[C@H]1CO[C@H]1CC[C@@H](c2ccccc2)CC1 [Example 72, N-((2R,3S)-1-(3-fluoro-4-hydroxypyridin-2-yl)-2-((((CIS)-4-phenylcyclohexyl)oxy)methyl)pyrrolidin-3-yl)methanesulfonamide] | 1.2 nM | 99.9%
COc1ccnc(N2CC[C@H](NS(C)(=O)=O)[C@@H]2CO[C@H]2CC[C@@H](c3ccccc3)CC2)c1 [Example 73, N-((2R,3S)-1-(4-methoxypyridin-2-yl)-2-((((CIS)-4-phenylcyclohexyl)oxy)methyl)pyrrolidin-3-yl)methanesulfonamide] | 105 nM | 99.7%
CN(C)c1ccnc(N2CC[C@H](NS(C)(=O)=O)[C@@H]2CO[C@H]2CC[C@@H](c3ccccc3)CC2)c1 [Example 74, N-((2R,3S)-1-(4-(dimethylamino)pyridin-2-yl)-2-((((CIS)-4-phenylcyclohexyl)oxy)methyl)pyrrolidin-3 - yl)methanesulfonamide] | 662 nM | 97.4%
CS(=O)(=O)N[C@H]1CCN(c2cc(O)ccn2)[C@H]1CO[C@H]1CC[C@@H](c2ccccc2)CC1 [Example 75, N-((2R,3S)-1-(4-hydroxypyridin-2-yl)-2-((((CIS)-4-phenylcyclohexyl)oxy)methyl)pyrrolidin-3-yl)methanesulfonamide] | 0.8 nM | 100.4%
C[C@@H]1C[C@H](NS(C)(=O)=O)[C@H](CO[C@H]2CC[C@@H](c3ccccc3)CC2)N1c1nnnn1C [Example 80, N-((2R,3S,5R)-5-Methyl-1-(1-methyl-1H-tetrazol-5-yl)-2-((((CIS)-4-phenylcyclohexyl)oxy)-methyl)pyrrolidin-3-yl)methanesulfonamide] | 1.8 nM | 97.9%
Cc1ccncc1N1CC[C@H](NS(C)(=O)=O)[C@@H]1CO[C@H]1CC[C@@H](c2ccccc2)CC1 [Example 81, N-((2R,3S)-1-(4-Methylpyridin-3-yl)-2-((((CIS)-4-phenylcyclohexyl)oxy)methyl)pyrrolidin-3-yl)methanesulfonamide] | 24.5 nM | 100.9%
Cc1ncccc1N1CC[C@H](NS(C)(=O)=O)[C@@H]1CO[C@H]1CC[C@@H](c2ccccc2)CC1 [Example 82, N-((2R,3S)-1-(2-methylpyridin-3-yl)-2-((((CIS)-4-phenylcyclohexyl)oxy)methyl)pyrrolidin-3-yl)methanesulfonamide] | 3360 nM | 92.4%
Cc1ncsc1N1CC[C@H](NS(C)(=O)=O)[C@@H]1CO[C@H]1CC[C@@H](c2ccccc2)CC1 [Example 83, N-((2R,3S)-1-(4-methylthiazol-5-yl)-2-((((CIS)-4-phenylcyclohexyl)oxy)methyl)pyrrolidin-3-yl)methanesulfonamide] | 1070 nM | 94.8%
Cc1scnc1N1CC[C@H](NS(C)(=O)=O)[C@@H]1CO[C@H]1CC[C@@H](c2ccccc2)CC1 [Example 84, N-((2R,3S)-1-(5-methylthiazol-4-yl)-2-((((CIS)-4-phenylcyclohexyl)oxy)methyl)pyrrolidin-3-yl)methanesulfonamide] | 109 nM | 100.7%
COC[C@@H]1C[C@H](NS(C)(=O)=O)[C@H](CO[C@H]2CC[C@@H](c3cccc(F)c3)CC2)N1c1cc(O)c(F)cn1 [Example 85, N-((2R,3S,5S)-1-(5-fluoro-4-hydroxypyridin-2-yl)-2-((((CIS)-4-(3-fluorophenyl)cyclohexyl)-oxy)methyl)-5-(methoxymethyl)pyrrolidin-3-yl)methanesulfonamide] | 0.54 nM | 101.1%
Cn1ccc(=O)c(F)c1N1CC[C@H](NS(C)(=O)=O)[C@@H]1CO[C@H]1CC[C@@H](c2ccccc2)CC1 [Example 86, N-((2R,3S)-1-(3-fluoro-1-methyl-4-oxo-1,4-dihydropyridin-2-yl)-2-((((CIS)-4-phenylcyclohexyl)oxy)methyl)pyrrolidin-3-yl)methanesulfonamide] | 148 nM | 99.9%
Cn1ccc(=O)cc1N1CC[C@H](NS(C)(=O)=O)[C@@H]1CO[C@H]1CC[C@@H](c2ccccc2)CC1 [Example 87, N-((2R,3S)-1-(1-methyl-4-oxo-1,4-dihydropyridin-2-yl)-2-((((CIS)-4-phenylcyclohexyl)oxy)methyl)pyrrolidin-3-yl)methanesulfonamide] | 52.4 nM | 102.3%
Cn1cc(F)c(=O)cc1N1CC[C@H](NS(C)(=O)=O)[C@@H]1CO[C@H]1CC[C@@H](c2ccccc2)CC1 [Example 88, N-((2R,3S)-1-(5-fluoro-1-methyl-4-oxo-1,4-dihydropyridin-2-yl)-2-((((CIS)-4-phenylcyclohexyl)oxy)methyl)pyrrolidin-3-yl)methanesulfonamide] | 29.3 nM | 101.1%
CS(=O)(=O)N[C@H]1CCN(c2cc(=O)c(F)cn2CC(F)F)[C@H]1CO[C@H]1CC[C@@H](c2ccccc2)CC1 [Example 89, N-((2R,3S)-1-(1-(2,2-difluoroethyl)-5-fluoro-4-oxo-1,4-dihydropyridin-2-yl)-2-((((CIS)-4-phenylcyclohexyl)oxy)methyl)pyrrolidin-3-yl)methanesulfonamide] | 108 nM | 98.9%
CS(=O)(=O)N[C@H]1CCN(c2cnc3oncc3c2)[C@H]1CO[C@H]1CC[C@@H](c2ccccc2)CC1 [Example 90, N-((2R,3S)-1-(isoxazolo[5,4-b]pyridin-5-yl)-2-((((CIS)-4-phenylcyclohexyl)oxy)methyl)pyrrolidin-3-yl)methanesulfonamide] | 930 nM | 87.6%
CS(=O)(=O)N[C@H]1CCN(c2cnc3ccoc3c2)[C@H]1CO[C@H]1CC[C@@H](c2ccccc2)CC1 [Example 91, N-((2R,3S)-1-(furo[3,2-b]pyridin-6-yl)-2-((((CIS)-4-phenylcyclohexyl)oxy)methyl)pyrrolidin-3-yl)methanesulfonamide] | 803 nM | 99.0%
CS(=O)(=O)N[C@H]1CCN(c2cnc3occc3c2)[C@H]1CO[C@H]1CC[C@@H](c2ccccc2)CC1 [Example 92, N-((2R,3S)-1-(furo[2,3-b]pyridin-5-yl)-2-((((CIS)-4-phenylcyclohexyl)oxy)methyl)pyrrolidin-3-yl)methanesulfonamide] | 326 nM | 100.2%
